Patent publication US6602827B1, “Herbicidal 5-chlorodifluoromethyl-1,3,4-thiadiazol-2-yl-oxyacetanilides” (Bayer Aktiengesellschaft, priority 1999, dated 2003)

Tests used:
[1] = tested on: crop plants, such as soya and wheat; assay: Pre-emergence test, crop tolerance; format: in vivo; details: in words
Method: (§1) Pre-emergence Test Solvent: 5 parts by weight of acetone Emulsifier: 1 part by weight of alkylaryl polyglycol ether To produce a suitable preparation of active compound, 1 part by weight of active compound is mixed with the stated amount of solvent, the stated amount of emulsifier is added and the concentrate is diluted with water to the desired concentration. Seeds of the test plants are sown in normal soil. After 24 hours, the soil is sprayed with the preparation of active compound such that the particular amount of active compound desired is applied per unit area. The active compound concentration in the spray liquor is chosen so that the particular amount of active compound desired is applied in 1000 liters of water per hectare. After three weeks, the degree of damage to the plants is rated in % damage in comparison to the development of the untreated control. The figures denote: 0%=no effect (like untreated control) 100%=total destruction

Wheat = assay: Pre-emergence test/greenhouse; format: in vivo; details: 125 g of ai./ha, rated after three weeks vs untreated control, 0% = no effect, 100% = total destruction
Method: as §1

Lolium = assay: Pre-emergence test/greenhouse; format: in vivo; details: 125 g of ai./ha, rated after three weeks vs untreated control, 0% = no effect, 100% = total destruction
Method: as §1

Setaria [2] = assay: Pre-emergence test/greenhouse; format: in vivo; details: 125 g of ai./ha, rated after three weeks vs untreated control, 0% = no effect, 100% = total destruction
Method: as §1

Galium [3] = assay: Pre-emergence test/greenhouse; format: in vivo; details: 125 g of ai./ha, rated after three weeks vs untreated control, 0% = no effect, 100% = total destruction
Method: as §1

Matricaria = assay: Pre-emergence test/greenhouse; format: in vivo; details: 125 g of ai./ha, rated after three weeks vs untreated control, 0% = no effect, 100% = total destruction
Method: as §1

Eriochloa = assay: Pre-emergence test/greenhouse; format: in vivo; details: 125 g of ai./ha, rated after three weeks vs untreated control, 0% = no effect, 100% = total destruction
Method: as §1

Soya = assay: Pre-emergence test/greenhouse; format: in vivo; details: 125 g of ai./ha, rated after three weeks vs untreated control, 0% = no effect, 100% = total destruction
Method: as §1

weeds [4] = assay: Pre-emergence test, overall activity against weeds; format: in vivo; details: in words
Method: as §1

[5] = tested on: crop plants, such as maize; assay: Post-emergence test, crop tolerance; format: in vivo; details: in words
Method: (§2) Solvent: 5 parts by weight of acetone
(§3) Emulsifier: 1 part by weight of alkylaryl polyglycol ether
(§4) To produce a suitable preparation of active compound, 1 part by weight of active compound is mixed with the stated amount of solvent, the stated amount of emulsifier is added and the concentrate is diluted with water to the desired concentration.
(§5) Test plants which have a height of 5 to 15 cm are sprayed with the preparation of active compound such that the particular amounts of active compound desired are applied per unit area. The concentration of the spray liquor is chosen so that the particular amounts of active compound desired are applied in 1000 1 of water/ha.
(§6) After three weeks, the degree of damage to the plants is rated in % damage in comparison to the development of the untreated control.
(§7) 0%=no effect (like untreated control))

Maize = assay: Post-emergence test/greenhouse; format: in vivo; details: 1000 g of ai./ha, rated after three weeks vs untreated control, 0% = no effect, 100% = total destruction
Method: as §2, §3, §4, §5, §6, §7

Setaria [6] = assay: Post-emergence test/greenhouse; format: in vivo; details: 1000 g of ai./ha, rated after three weeks vs untreated control, 0% = no effect, 100% = total destruction
Method: as §2, §3, §4, §5, §6, §7

Xanthium = assay: Post-emergence test/greenhouse; format: in vivo; details: 1000 g of ai./ha, rated after three weeks vs untreated control, 0% = no effect, 100% = total destruction
Method: as §2, §3, §4, §5, §6, §7

Galium [7] = assay: Post-emergence test/greenhouse; format: in vivo; details: 1000 g of ai./ha, rated after three weeks vs untreated control, 0% = no effect, 100% = total destruction
Method: as §2, §3, §4, §5, §6, §7

weeds [8] = assay: Post-emergence test, overall activity against weeds; format: in vivo; details: in words
Method: as §2, §3, §4, §5, §6, §7

melting point: 98 °C
SMILES: CC(C)N(C(=O)COc1nnc(C(F)(F)Cl)s1)c1ccc(F)cc1 [Example 1, N-i-propyl-N-(4-fluoro-phenyl)-2-(5-chlorodifluoromethyl-1,3,4-thiadiazol-2-yl-oxy)-acetamide]
tolerance by crop plants [1]: tolerated well | degree of damage, Wheat (Wheat): 0% | degree of damage, Lolium (Lolium): 90% | degree of damage, Setaria (Setaria [2]): 100% | degree of damage, Galium (Galium [3]): 90% | degree of damage, Matricaria (Matricaria): 100% | degree of damage, Eriochloa (Eriochloa): 100% | degree of damage, Soya (Soya): 0% | activity against weeds (weeds [4]): very strong activity | tolerance by crop plants [5]: tolerated well | degree of damage, Maize (Maize): 30% | degree of damage, Setaria (Setaria [6]): 95% | degree of damage, Xanthium (Xanthium): 80% | degree of damage, Galium (Galium [7]): 95% | activity against weeds (weeds [8]): strong activity
